Laboratory results taken from US20200016088A1, “NANOFORMULATIONS OF NEUROPEPTIDES AND METHOD OF MAKING SAME” (THE CORPORATION OF MERCER UNIVERSITY, priority 2018, published 2020).

How the values were obtained:
[1] = OT in CSF and plasma by ELISA after intranasal administration; format: in vivo, Swiss-Webster mice; conditions: 2 hours after intranasal administration, 50 ug OT
Description: On sample collection days, animals were administered a 50 μl solution of OT alone or encapsulated in nanoparticles (containing 50 ug of OT) intranasally and placed in separate cages for 120 minutes.
CSF samples were collected from the cisterna magna as previously published by (Liu and Duff 2008) with little modifications. Briefly, the mice were anaesthetized with isoflurane and maintained under anesthesia at a flow rate of 1.5 ml/min during the surgical process. The mice were then placed prone in the stereotaxic instrument in direct contact with a heating pad with their heads firmly secured. The skin on the head and neck was shaved and the surgical site wiped with 10% povidone iodine followed by 70% ethanol. An incision was made and the muscles under the skin separated by blunt dissection under a dissecting microscope until the dura of the cisterna magna were exposed (a glistening white reverse triangle). The mice were then repositioned so the head formed a near 135° angle to the body. […]
All collected CSF and Plasma samples were treated identically and assayed at the same time with the same batch of reagents. […] The optical density was read immediately at 405 nm with correction at 570 nm using BioTek HT synergy spectrophotometer at 540 nm (Model S1AFR BioTek; Winooski, Vt.). The mean optical density of the blank wells was subtracted from all readings.

[2] = within one hour of intranasal delivery (Leng and Ludwig 2016); cited from earlier work
[3] = in vivo; cited from earlier work
[4] = tested on: BEND3 cells; test: BBB transport across BEND3 cell barrier in Ussing chamber; format: in vitro ADME, mouse; conditions: 1, 2, 3 and 4 hours
Description: To generate a cellular model of the BBB, BEND3 cells were obtained from American Type Culture Collection (ATCC: 2299). BEND3 cells are endothelial cells that form tight barriers through the formation of transcellular tight junctions (Montesano et al. 1990; Sikorski et al. 1993; Williams et al. 1988), and these barriers mimic the barrier properties of the BBB (He et al. 2010; Watanabe et al. 2013). Their endothelial nature has been confirmed by the expression of von Willebrand factor and the uptake of fluorescently labeled low density lipoprotein. BEND3 cells were cultured in Dulbecco's Modified Eagle Medium (DMEM) supplemented with 15% FBS and 1% (100 U/ml Penicillin and 100 μg/ml Streptomycin). […]
To study the transport of nanoparticle formulations across the BEND3 BBB model barrier, a complete Ussing chamber system with a multichannel voltage-current clamp and the EasyMount Ussing chambers (Model VCC MC8; P2300; Physiologic Instruments Inc.; San Diego, Calif.) was used. […] To subtract the background resistance, a blank cell-culture insert was placed onto the slider and used to compensate for any fluid or blank membrane resistance by dialing off any reading to zero. […] Before the start of the experiment, all cell barrier preparations were evaluated for resistance properties and current flow using the acquire and analyze software. […]

[5] = tested on: macrophage (RAW 246.7) cell line; test: Cytotoxicity by MTT assay; format: cell-based; conditions: relative to negative control
Description: (See Examples 10 through 16 hereinbelow). As confirmed in past research, the nanoparticle formulations have shown to be both safe and non-toxic in non-human primates. In primates, all parameters related to liver toxicity (such as SGOT, SGPT) and kidney toxicity (such as serum creatinine, […]) were normal after repeated nanoparticulate administrations when compared to the control group. […] For confirmation of a potential innate inflammatory response, nitric oxide assays are an important tool. For the assay, dendritic cells are plated in a well plate and exposed to the formulation. After 16 hours, using reagents, a stronger color change indicates a higher production of nitric oxide by these antigen-presenting cells in response to the formulation's antigenicity. […] This indicates minimal if not negligible immunogenicity of the formulation. […] Likewise, cytotoxicity of blank nanoparticles was assessed by MTT (3-(4,5-Dimethylthiazol-2-yl)-2,5-diphenyltetrazolium bromide) assay in a macrophage (RAW 246.7) cell line.
The cytotoxicity of blank and peptide loaded nanoparticles was assessed by the MTT (3-(4,5-Dimethylthiazol-2-yl)-2,5-diphenyltetrazolium bromide) assay. […] Absorbance in each well was measured at 570 nm in a microtiter plate reader. The formation of a colored product quantified by measuring absorbance can be correlated to the percentage of living cells.

Question: Which “proportion of OT in CSF versus the total in CSF plus plasma” value [1] does the source give for `CC[C@H](C)[C@@H]1NC(=O)[C@H](Cc2ccc(O)cc2)NC(=O)[C@@H](N)CSSC[C@@H](C(=O)N2CCC[C@H]2C(=O)N[C@@H](CC(C)C)C(=O)NCC(N)=O)NC(=O)[C@H](CC(N)=O)NC(=O)[C@H](CCC(N)=O)NC1=O` [OT, oxytocin] here?
Answer: The value was 4.2%.

Question: What about the “calculated maximum transfer of a dose to the brain” value [2] of the same molecule?
Answer: The value was 0.005%.

Question: And the “half-life in the blood” value [3]?
Answer: Its value is “on the order of minutes”.

Question: With `Cc1cc(-c2ccc(/N=N/c3c(S(=O)(=O)O)cc4cc(S(=O)(=O)O)cc(N)c4c3O)c(C)c2)ccc1/N=N/c1c(S(=O)(=O)O)cc2cc(S(=O)(=O)O)cc(N)c2c1O` [trypan blue] as the molecule, how does the “transport across the barrier, presence versus absence of the cell barrier” value [4] read?
Answer: Its value is “significant reduction”.

Question: What does the source list for benzalkonium chloride?
Answer: cell viability ([5]; after 24 hours): 21.44%; cell viability ([5]; after 48 hours): 20.089%
